Values quoted from earlier work in patent US6495521B2, “Combination therapy method for treating chronic hepatitis B” (SciClone Pharmaceuticals, Inc., priority 1993, dated 2002).

Key:
[1] = system: hepatitis B virus; details: patients with chronic active hepatitis B who received the peptide
[2] = individuals suffering from chronic active hepatitis B

Substance: Ac-Ser-Asp-Ala-Ala-Val-Asp-Thr-Ser-Ser-Glu- Ile-Thr-Thr-Lys-Asp-Leu-Lys-Glu-Lys-Lys-Glu- Val-Val-Glu-Glu-Ala-Glu-Asn-OH (Ac-SDAAVDTSSEITTKDLKEKKEVVEEAEN-OH) [thymosin alpha-1, 28 amino acid peptide originally isolated from calf thymus thymosin fraction 5]
- patients who cleared hepatitis B virus DNA from serum and persistently tested negative for serum HBV DNA after treatment was terminated [1]: 75%
- lymphocyte counts [2]: increases in lymphocyte counts
- production of gamma-interferon [2]: enhance production of gamma-interferon
